We go through five compounds from patent US20220057378A1, “MICROBIAL MICROFLUIDIC BIOSENSOR” (priority 2015, published 2022).

One test deals with As3. The experiment in a line: microplate specificity test with on- and off-target heavy metals (fluorescence). The conditions noted are these: on-target = 1, no-toxin control = 0; As 1.3, Cd 0.44, Cr(VI) 2, Cu 20, Pb 1, Hg 0.1, Co 20, Fe 500, Ni 1.7, Zn 7.6 μM. The test is classed as cell-based, E. coli. The text has this: (§1) Each column represents the fluorescence response of a strain to the on-target metal (normalized to “1”) and all off-target metals, where “0” represents the unchanged response for the no-toxin control.
(§2) Although the ability to sense cobalt, iron, nickel, and zinc is of secondary importance, these heavy metals were included as potential off-target inducers because they may be present in the natural water supply under test. […] This combinatorial logic was implemented in algorithms.

In a further test the test system is Cd1. The test is described as above. The conditions noted are these: on-target = 1, no-toxin control = 0; As 1.3, Cd 0.44, Cr(VI) 2, Cu 20, Pb 1, Hg 0.1, Co 20, Fe 500, Ni 1.7, Zn 7.6 μM. The test is classed as cell-based, E. coli.
Excerpt: as §1, §2

A further test concerns Cr5. Described as above. The format is cell-based, E. coli. The conditions noted are these: on-target = 1, no-toxin control = 0, As 1.3, Cd 0.44, Cr(VI) 2, Cu 20, Pb 1, Hg 0.1, Co 20, Fe 500, Ni 1.7, Zn 7.6 μM.
Excerpt: as §1, §2

The test system of the next test is Cu1. Described as above. The conditions noted are these: on-target = 1, no-toxin control = 0; As 1.3, Cd 0.44, Cr(VI) 2, Cu 20, Pb 1, Hg 0.1, Co 20, Fe 500, Ni 1.7, Zn 7.6 μM. The test is classed as cell-based, E. coli.
Excerpt: as §1, §2

Another test has as its system Hg3. Described as above. The format is cell-based, E. coli. The conditions noted are these: on-target = 1, no-toxin control = 0, As 1.3, Cd 0.44, Cr(VI) 2, Cu 20, Pb 1, Hg 0.1, Co 20, Fe 500, Ni 1.7, Zn 7.6 μM.
Excerpt: as §1, §2

The subject of a further test is Pb2. The description is as above. The format is cell-based, E. coli. The conditions noted are these: on-target = 1, no-toxin control = 0; As 1.3, Cd 0.44, Cr(VI) 2, Cu 20, Pb 1, Hg 0.1, Co 20, Fe 500, Ni 1.7, Zn 7.6 μM.
Excerpt: as §1, §2

A further test concerns E. coli MG1655. The format is cell-based. The conditions noted are these: for Number DE Genes: false discovery rate below 1%. The text has this: RNA-Seq results for promoter activation in E. coli MG1655 in response to single and multiple toxin exposures at low and high concentrations: Our analysis of the sequencing data from RNA-Seq experiments to determine candidate genes that are induced upon toxin exposure consisted of three main tasks: sequence alignment, quantification of gene expression, and identification of differentially expressed genes. Sequence alignment: Reads were aligned to the reference E. coli K-12 substr. MG1655 genome using a tolerance of at most two mismatches per alignment to protect against sequencing errors. The alignment was performed using Bowtie software, 5 which is known to be very efficient in aligning reads to a reference genome. Without being limiting, Bowtie software 5 can be used for the alignment. Those skilled in the art will appreciate that there are many such software programs for performing alignments.
Quantification of gene expression: The expression level of each gene was determined as a function of the number of aligned reads mapping to the gene. […] Additionally, we implemented our own algorithms for sequence alignment and quantification of gene expression in order to crosscheck all results.
Identification of differentially expressed genes: Finally, a set of statistical and information theory algorithms were applied in order to extract not only differentially expressed (DE) genes for each toxin with respect to the control samples (pure water) but also toxin-specific genes. DESeq is a standard tool for identifying DE genes that allowed us to select sensitive genes with differential expression between the control samples (pure water) and the cells exposed to toxin. It assumes that the number of counts for each gene across experimental replicates follows a negative binomial distribution (8, 9). We considered genes with a False Discovery Rate (FDR) lower than 1% as DE in order to ensure statistically robust DE genes. […] Additionally, genes with the largest number of counts and expression levels are preferable in order to maximize the signal-to-noise ratio. When it is not possible to find toxin-specific genes, the next generation of good candidates is formed by those genes satisfying the above properties for a small subset of toxins (multiple-toxin response). It is desirable to have single-toxin-specific genes for several of the toxins in the combination in order to determine toxin-specific multi-gene-responses by means of logical operations. […] Therefore, we have developed information theoretic measures to improve the toxin separability. The core idea of the approach is that low entropies (or highly informative genes) correspond to toxin-specific genes, while large entropies (low information) are associated with scenarios in which DE fold-changes across different toxins are similar and should be discarded.
(§3) Milestone 2.1: Expose target cells to toxins of interest over four orders of magnitude of concentration and extract RNA: Three strains of bacteria were exposed to relevant levels of all toxins and extracted RNA. The toxin exposure protocol involves first growing a culture of bacterial cells to mid-log phase (OD≤0.2). […] Finally, cellular RNA was stabilized using Qiagen RNA Protect reagent, the cells were centrifuged, and the pellet was frozen at −80° C. To investigate the cellular RNA response to toxin insult, we exposed E. coli MG1655, E. coli LABEC01, and B. subtilis 168 cells to the toxins and concentrations shown in Table 7 and extracted RNA.
Milestone 2.5: Prepare isolated RNA for Illumina sequencing using vendor provided reagents and carry out sequencing: We have prepared libraries and carried out sequencing for all toxins of interest.

Another test relates to GFP sensor strains. The experiment in a line: SVM classification of GFP sensor responses (toxin / no toxin). The format is cell-based. The conditions noted are these: from classification accuracy and ROC curves. The text has this: Computational models to determine the threshold of detection for specific sensors based on models of experimental GFP responses. We used machine learning techniques to determine the relationships between the GFP output signal and the presence of a toxin. We have created a database containing the collected sensor response data. We have quantified the GFP threshold of detection for each sensor construct. We have constructed Receiver Operating Characteristic (ROC) curves for each sensor to achieve robust sensing. We constructed machine learning models capable of inferring the relationships between the GFP sensor responses and the presence or absence of a toxin at a given concentration. The algorithm learns these relationships from a set of training samples (GFP sensor responses) defined by the set of experimental conditions from which they were generated. The aim of the algorithm is to provide a general method capable of determining the experimental conditions associated with GFP sensor responses through the use of historical data. Specifically, we have built classification models based on Support Vector Machines (SVMs), which is one of the most popular classifiers due to its excellent performance in many contexts and its solid mathematical basis (1). For each toxin and concentration, we solved a binary classification problem in which the positive class represents the presence of the toxin in water and the negative class is associated with clean environments. Patterns were constructed with features containing GFP sensor responses at various timestamps to capture the temporal dynamics of the GFP signal. The optimal meta-parameters of the SVM classifier were determined by applying a 5-crossvalidation during the training phase (2). In order to have a reliable estimate of the performance of the model when deployed in real environments, we measured its performance over a set of samples (test patterns) not seen during the training phase. The SVM's performance was determined by the percentage of test samples correctly labeled as toxin/no toxin (classification accuracy). 80% of samples were used for training the SVM models and the remaining 20% of samples was used to evaluate their effectiveness. We generated 20 random training/test partitions to have an estimate of performance independent of the data partition.
Specifically, we have built classification models based on Support Vector Machines (SVMs), which is one of the most popular classifiers due to its excellent performance in many contexts and its solid mathematical basis. For each toxin and concentration, we solved a binary classification problem in which the positive class represents the presence of the toxin in water and the negative class is associated with clean environments. Patterns were constructed with features containing GFP sensor responses at various timestamps to capture the temporal dynamics of the GFP signal. The optimal meta-parameters of the SVM classifier were determined by applying a 5-crossvalidation during the training phase.
In order to have a reliable estimate of the performance of the model when deployed in real environments, we measured its performance over a set of samples (test patterns) not seen during the training phase. The SVM's performance was determined by the percentage of test samples correctly labeled as toxin/no toxin (classification accuracy). 80% of samples were used for training the SVM models and the remaining 20% of samples was used to evaluate their effectiveness. We generated 20 random training/test partitions based on data collected in single-strain chips (no crosstalk data) to have an estimate of performance.

The next test concerns cellular esterases. Kind of test: inhibition of cellular esterase activity (CFDA cleavage) in gill chip. The conditions noted are these: 0.725 g/l malathion; two sequential exposures; recovers subsequently. The test is classed as cell-based, S. cerevisiae. How it is done:
Additional constructs based on this promoter were generated while collecting on-chip response data for all other sensing strains using the sensor prototypes was performed. […] S. cerevisiae was loaded into a gill chip and CFDA (carboxyfluorescein diacetate) was added to the growth medium. […] Because CFDA breaks down in the medium over time thereby increasing the background signal, fresh medium+CFDA was introduced at 1,500 and 2,000 min. This explains the drift in baseline GFP during this period, which can be eliminated in subsequent experiments by mixing dye and medium on-chip.

The subject of the next test is Mall construct. The experiment in a line: malathion construct loaded into the sensor device. The format is cell-based, E. coli. The conditions noted are these: prototype sensor.
The test system of another test is B. subtilis 168. The experiment in a line: RNA-Seq after toxin exposure. The format is cell-based. How it is done: as §3
We used RNA-Seq to verify the nasB promoter in B. subtilis 168 as a sensitive and specific promoter for the last remaining toxin, ammonium (see FIG. 2). […] This is desirable because, unlike the other water toxins of interest, ammonium is expected to increase the growth rate of biosensor cells. In this situation, a “lights-on” sensor could be triggered by any substance that increases the growth rate and resulting GFP production ability of cells, whereas a “lights-off” sensor remains immune to this effect.

For test [1], the system named is B. subtilis NCIB 3610/Amm3. The experiment in a line: 18-strain chip induction. The format is cell-based. The conditions noted are these: 5 ppm NH4-N, GFP production drops. From the text: In an embodiment herein, the toxin response data across 18 unique sensing strains were also collected using a new chip design that houses 16 E. coli strains and 2 B. subtilis strains. The B. subtilis NCIB 3610/Amm3 construct is a “lights-off” sensor, meaning that GFP production drops when ammonium is introduced, following a slight increase due to faster growth on this preferred nitrogen source. […] By combining these sensor responses, we can identify cobalt by the unique response of Pb7 alone and lead by the unique combination of Zn6, Pb7, and Pb8 responses.

Read-outs that look alike come from different tables or passages of the source.

For the compound `[Fe]` [Iron], in the test with As3, the “fluorescence response of strain As3 (on-target arsenic)” value (shortened to “fluorescence response of strain As3”) is listed as −0.06. For the same compound, in the test with Cd1, the “fluorescence response of strain Cd1 (on-target cadmium)” value (“fluorescence response of strain Cd1” for short) was −0.31. In addition, the results for the “fluorescence response of strain Cr5 (on-target chromium(VI))” value (“fluorescence response of strain Cr5” below) in the test with Cr5 and in the test with Cr5 (listed as iron) were 0.86 and “sensitive”, respectively. Further, the “fluorescence response of strain Cu1 (on-target copper)” value (“fluorescence response of strain Cu1” for short) with Cu1 is reported as 0.17. For the same compound, the “fluorescence response of strain Hg3 (on-target mercury)” value (from here on “fluorescence response of strain Hg3”) in the test on Hg3 is −0.38. Further, the “fluorescence response of strain Pb2 (on-target lead)” value (“fluorescence response of strain Pb2” below) with Pb2 is given as 0.96. Moreover, the “Number DE Genes” value came to 70 in the test on E. coli MG1655 (high concentration) and 32 in the test on E. coli MG1655 (low concentration).
For `CCOC(=O)CC(SP(=S)(OC)OC)C(=O)OCC` (stereo not drawn) [Malathion, malathion], in the test with E. coli MG1655 (RNA-Seq mean fold change), the “response of the nemR promoter” value is listed as “responds to high concentrations”. Further, the “Number DE Genes” value in the test with E. coli MG1655 (high concentration) was 41; with E. coli MG1655 (low concentration), 370. The same compound registered a threshold of detection in the test with GFP sensor strains of 72.5 mg/L. Besides, the “cell fluorescence (CFDA cleavage by cellular esterases)” value in the test on cellular esterases is recorded as “significantly drops”. Moreover, in the test on Mall construct, the “response of Mall construct in sensor device” value is recorded as “did not produce a discernable response”.
Consider `[Ni]` [Nickel], for which the “fluorescence response of strain As3” value in the test with As3 was −0.08. Moreover, the “fluorescence response of strain Cd1” value in the test on Cd1 was −0.08. Also, the “fluorescence response of strain Cr5” value in the test on Cr5 is −0.35. Besides, the “fluorescence response of strain Cu1” value with Cu1 was −0.05. In addition, the “fluorescence response of strain Pb2” value in the test on Pb2 is listed as 0.16. In addition, the results for the “Number DE Genes” value with E. coli MG1655 (high concentration) and in the test on E. coli MG1655 (low concentration) were 95 and 43, respectively.
Regarding `[Zn]` [Zinc], the “fluorescence response of strain As3” value in the test on As3 is recorded as −0.14. The “fluorescence response of strain Cd1” value in the test with Cd1 was −0.09. Besides, in the test with Cr5, the “fluorescence response of strain Cr5” value is given as 0.35. For the same compound, the “fluorescence response of strain Cu1” value with Cu1 is −0.08. Besides, the “fluorescence response of strain Hg3” value in the test with Hg3 is 0.78. In addition, the “fluorescence response of strain Hg3” value in the test on Hg3 (listed as zinc) is reported as “sensitive”. In addition, in the test on Pb2, the “fluorescence response of strain Pb2” value is listed as 1.06. Also, in the test with E. coli MG1655 (RNA-Seq mean fold change), the “response of the mntH promoter” value is “high concentrations of zinc alone”; the “response of the shiA promoter” value is “high concentrations of zinc alone”; the “response of the yjjZ promoter” value was “responds monotonically to increasing concentrations”; the “response of the zntA promoter” value is “shows sensitivity to low and high concentrations”. Further, the “response of the zraP promoter” value in the test with E. coli MG1655 (RNA-Seq mean fold change) was “responds specifically and monotonically to increasing concentrations”. Also, the “Number DE Genes” value in the test with E. coli MG1655 (high concentration) came out at 596. Moreover, the “Number DE Genes” value in the test on E. coli MG1655 (low concentration) was determined as 24.
As to Ammonium, the “response of the nasB promoter” value in the test with B. subtilis 168 was “sensitive and specifically downregulated”. Also, the threshold of detection result in the test with GFP sensor strains was “one”. Moreover, the “GFP response of Amm3 strain (lights-off sensor)” value in test [1] is “respond sensitively”.
